Columns and labels:
[1] = Nanoparticle Tracking Analysis (NTA) in PBS/DMSO, with and without BSA; assay type: physicochemical; settings: PBS, without BSA, 20 μM, 25 °C
Protocol: Nanoparticle Tracking Analysis (NTA). 3 and 4 were analyzed via NTA to study the modulation of self‐assembly behavior in PBS/DMSO mixture (pH 7.4), with and without BSA, in an analogous way as described previously.9 Samples of 3 and 4 in PBS/DMSO were prepared as described above for UV‐vis measurements. The solutions were measured 30 min after preparation. Samples of BSA−3 and BSA−4 were prepared with two different BSA:ruthenacarborane ratios, namely 10 : 1 and 1 : 1. Stock solutions of BSA in PBS ([BSA]PBS=1.128 mM) were diluted to final concentrations of 200 or 20 μM with PBS (Vfin=5 mL), then an aliquot of the stock solution of 3 or 4 was added, so that the final concentration of metallacarborane was 20 μM. Content of DMSO was adjusted to 1 vol % (considering the amount of DMSO from the stock solutions) before addition of the ruthenacarborane, in all samples. The solutions of BSA−ruthenacarborane were measured 3.5–6 h after preparation. BSA alone in PBS/DMSO was also measured, as blank, using the same capture and processing parameters as for the respective BSA−metallacarborane samples, for direct comparison. All NTA measurements were performed at 25±0.1 °C. Each sample was measured in five independent captures. The time of each capture was set to 60 s.

[2] = tested on: MCF‐7 cells; assay: DAPI staining, fluorescence microscopy, MCF‐7; assay type: cell-based, human; settings: MCF‐7, 20 μM, 72 h
Protocol: Flow cytometry. For gaining better insights into the mechanisms of action of the ruthenium complexes, MCF‐7 and LN229 cells incubated with an IC50 dose of 3 or 4, were analyzed via flow cytometry. Several staining protocols were carried out in parallel, in independent experiments: i) AnnV/PI for the detection of apoptotic cell death, ii) AO for the detection of acidic vacuoles, iii) ApoStat for checking caspase activation, iv) CFSE for detecting interference with cellular proliferation, and v) DAPI for the detection of morphological signs of apoptosis. Untreated cells or cells treated only with BSA (control) were also measured, as reference for BSA‐free and BSA‐containing drug formulations, respectively. […] Channels FL1 (green emission), FL2 (orange emission) and/or FL3 (dark red emission) were used for fluorescence detection, according to the specific staining agent. Sideward Scatter (SSC) for MCF‐7 cells treated with 4 or BSA−4 was also analyzed, with respect to the control, for detection of shifts of cell granularity. […]
FCS, 2 mM L‐glutamine, 0.01% sodium pyruvate and antibiotics, at 37 °C in a humidified atmosphere with 5% CO2. […] Cells were counted and seeded in 96‐well plates and incubated overnight, as described above. […]
Staining Protocols for Flow Cytometric Analysis. […] Finally, cells were washed in PBS, resuspended in PBS (or AnnV‐binding buffer for AnnV/PI), and analysed. […]

Substance | concentration of self‐assemblies [1] | morphological signs of apoptosis (DAPI) [2]
closo ‐[3‐(η^6‐p‐Cymene)‐1‐(quinolin‐8‐yl‐acetate)‐3,1,2‐RuC2B9H10] [Compound 4] | 10^6–10^7 particles mL^−1 | sparse morphological signs of apoptosis
closo‐ [Compound 3, closo‐ [3‐(η^6‐p‐Cymene)‐1‐(CH2COOH)‐3,1,2‐RuC2B9H10]] | 10^6–10^7 particles mL^−1 | sparse morphological signs of apoptosis
